Measured values published in patent US11312682B2, “Selective inhibitors of carbonic anhydrase” (VILNIUS UNIVERSITY, priority 2015, dated 2022).
Read-outs that look alike come from different tables or passages of the source.

Legend:
human recombinant CA II = human recombinant CA II (Homo sapiens, UniProt P00918); test: Fluorescent thermal shift assay (FTSA), binding to CA II; settings: read-out: Dissociation constants, CA II
human recombinant CA VA = human recombinant CA VA (Homo sapiens, UniProt P35218); test: Fluorescent thermal shift assay (FTSA), binding to CA VA; settings: Table 1; FTSA at 37° C. and pH 7.0; read-out: Dissociation constants, CA VA
human recombinant CA VII = human recombinant CA VII (Homo sapiens, UniProt P43166); test: Fluorescent thermal shift assay (FTSA), binding to CA VII; settings: Table 1; FTSA at 37° C. and pH 7.0; read-out: Dissociation constants, CA VII
human recombinant CA XIV = human recombinant CA XIV (Homo sapiens, UniProt Q9ULX7); test: Fluorescent thermal shift assay (FTSA), binding to CA XIV; settings: read-out: Dissociation constants, CA XIV
human recombinant CA VI = human recombinant CA VI (Homo sapiens, UniProt P23280); test: Fluorescent thermal shift assay (FTSA), binding to CA VI; settings: Table 1; FTSA at 37° C. and pH 7.0; read-out: Dissociation constants, CA VI
human recombinant CA IV = human recombinant CA IV (Homo sapiens, UniProt P22748); test: Fluorescent thermal shift assay (FTSA), binding to CA IV; settings: Table 1; FTSA at 37° C. and pH 7.0; read-out: Dissociation constants, CA IV
human recombinant CA III = human recombinant CA III (Homo sapiens, UniProt P07451); test: Fluorescent thermal shift assay (FTSA), binding to CA III; settings: Table 1; FTSA at 37° C. and pH 7.0; read-out: Dissociation constants, CA III
[1] = target: human recombinant CA XIII (Homo sapiens, UniProt Q8N1Q1); test: Fluorescent thermal shift assay (FTSA), binding to CA XIII; settings: Table 1; FTSA at 37° C. and pH 7.0; read-out: Dissociation constants, CA XIII
human recombinant CA I = human recombinant CA I (Homo sapiens, UniProt P00915); test: Fluorescent thermal shift assay (FTSA), binding to CA I; settings: Table 3; FTSA at 37° C., pH 7.0; read-out: Dissociation constants, CA I
human recombinant CA IX = human recombinant CA IX (Homo sapiens, UniProt Q16790); test: Fluorescent thermal shift assay (FTSA), binding to CA IX; settings: read-out: Dissociation constants, CA IX
human recombinant CA XII = human recombinant CA XII (Homo sapiens, UniProt O43570); test: Fluorescent thermal shift assay (FTSA), binding to CA XII; settings: read-out: Dissociation constants, CA XII
human recombinant CA VB = human recombinant CA VB (Homo sapiens, UniProt Q9Y2D0); test: Fluorescent thermal shift assay (FTSA), binding to CA VB; settings: Table 1; FTSA at 37° C. and pH 7.0; read-out: Dissociation constants, CA VB
[2] = Table 1, FTSA at 37° C. and pH 7.0
[3] = Table 3, FTSA at 37° C., pH 7.0

Sequence of human recombinant CA I (P00915 whole entry): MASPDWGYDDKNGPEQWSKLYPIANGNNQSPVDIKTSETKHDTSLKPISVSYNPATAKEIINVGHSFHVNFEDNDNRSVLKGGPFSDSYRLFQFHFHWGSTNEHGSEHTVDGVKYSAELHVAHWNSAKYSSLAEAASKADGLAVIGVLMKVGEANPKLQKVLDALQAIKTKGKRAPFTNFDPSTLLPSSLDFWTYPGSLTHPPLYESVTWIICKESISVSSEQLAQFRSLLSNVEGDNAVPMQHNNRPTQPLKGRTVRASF
Sequence of human recombinant CA VA (P35218 39-305): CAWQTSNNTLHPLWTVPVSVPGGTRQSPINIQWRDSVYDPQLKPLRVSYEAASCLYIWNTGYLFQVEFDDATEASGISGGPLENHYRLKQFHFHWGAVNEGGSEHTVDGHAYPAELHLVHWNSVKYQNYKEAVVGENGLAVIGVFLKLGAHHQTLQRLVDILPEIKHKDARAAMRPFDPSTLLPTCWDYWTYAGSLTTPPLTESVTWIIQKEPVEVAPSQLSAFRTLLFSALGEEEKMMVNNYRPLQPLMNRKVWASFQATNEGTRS
Sequence of human recombinant CA XIII (Q8N1Q1 whole entry): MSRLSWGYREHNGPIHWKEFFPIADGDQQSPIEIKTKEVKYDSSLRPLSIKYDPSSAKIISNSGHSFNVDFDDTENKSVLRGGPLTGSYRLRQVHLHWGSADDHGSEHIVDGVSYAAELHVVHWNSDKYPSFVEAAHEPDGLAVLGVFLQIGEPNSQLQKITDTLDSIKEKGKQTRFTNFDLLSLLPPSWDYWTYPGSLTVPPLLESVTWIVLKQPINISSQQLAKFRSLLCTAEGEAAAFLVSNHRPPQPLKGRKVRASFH
Sequence of human recombinant CA VII (P43166 whole entry): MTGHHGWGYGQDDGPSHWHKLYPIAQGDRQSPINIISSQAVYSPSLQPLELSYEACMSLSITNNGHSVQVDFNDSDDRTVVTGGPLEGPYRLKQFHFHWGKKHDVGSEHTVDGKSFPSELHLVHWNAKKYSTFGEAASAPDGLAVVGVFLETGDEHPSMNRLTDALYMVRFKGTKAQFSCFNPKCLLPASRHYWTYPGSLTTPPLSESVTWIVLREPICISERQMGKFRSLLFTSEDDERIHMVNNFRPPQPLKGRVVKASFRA
Sequence of human recombinant CA XII (O43570 25-354): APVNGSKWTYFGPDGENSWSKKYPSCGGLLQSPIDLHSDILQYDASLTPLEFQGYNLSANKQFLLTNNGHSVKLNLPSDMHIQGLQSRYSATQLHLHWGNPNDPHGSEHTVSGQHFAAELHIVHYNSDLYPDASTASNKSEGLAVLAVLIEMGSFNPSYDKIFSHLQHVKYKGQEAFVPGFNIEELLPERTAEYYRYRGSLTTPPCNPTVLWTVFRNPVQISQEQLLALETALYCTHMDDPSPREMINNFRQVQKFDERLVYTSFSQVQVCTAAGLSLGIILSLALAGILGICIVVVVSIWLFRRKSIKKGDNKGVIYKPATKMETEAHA
Sequence of human recombinant CA XIV (Q9ULX7 16-337): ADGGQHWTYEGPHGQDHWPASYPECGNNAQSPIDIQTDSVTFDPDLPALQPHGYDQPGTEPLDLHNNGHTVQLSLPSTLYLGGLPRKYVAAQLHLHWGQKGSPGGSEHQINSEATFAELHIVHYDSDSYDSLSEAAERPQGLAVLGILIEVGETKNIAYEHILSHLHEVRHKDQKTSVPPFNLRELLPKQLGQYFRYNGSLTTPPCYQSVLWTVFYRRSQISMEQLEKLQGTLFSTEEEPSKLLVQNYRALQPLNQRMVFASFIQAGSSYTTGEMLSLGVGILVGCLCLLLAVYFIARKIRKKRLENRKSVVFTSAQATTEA
Sequence of human recombinant CA III (P07451 whole entry): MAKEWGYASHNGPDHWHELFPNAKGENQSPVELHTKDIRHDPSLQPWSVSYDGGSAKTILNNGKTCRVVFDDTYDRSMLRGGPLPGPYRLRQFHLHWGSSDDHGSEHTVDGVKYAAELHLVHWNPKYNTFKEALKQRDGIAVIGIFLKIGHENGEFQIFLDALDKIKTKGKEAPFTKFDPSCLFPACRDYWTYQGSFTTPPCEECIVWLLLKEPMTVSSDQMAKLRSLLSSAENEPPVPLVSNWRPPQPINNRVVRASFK
Sequence of human recombinant CA VI (P23280 18-308): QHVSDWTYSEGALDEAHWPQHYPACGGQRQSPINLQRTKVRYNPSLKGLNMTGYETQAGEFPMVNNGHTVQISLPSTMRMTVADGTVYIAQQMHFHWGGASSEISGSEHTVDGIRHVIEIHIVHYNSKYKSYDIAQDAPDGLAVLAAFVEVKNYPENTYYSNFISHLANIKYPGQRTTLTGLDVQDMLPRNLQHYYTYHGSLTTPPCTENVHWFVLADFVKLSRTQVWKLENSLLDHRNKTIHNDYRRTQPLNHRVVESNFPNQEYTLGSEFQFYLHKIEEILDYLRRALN
Sequence of human recombinant CA IV (P22748 19-284): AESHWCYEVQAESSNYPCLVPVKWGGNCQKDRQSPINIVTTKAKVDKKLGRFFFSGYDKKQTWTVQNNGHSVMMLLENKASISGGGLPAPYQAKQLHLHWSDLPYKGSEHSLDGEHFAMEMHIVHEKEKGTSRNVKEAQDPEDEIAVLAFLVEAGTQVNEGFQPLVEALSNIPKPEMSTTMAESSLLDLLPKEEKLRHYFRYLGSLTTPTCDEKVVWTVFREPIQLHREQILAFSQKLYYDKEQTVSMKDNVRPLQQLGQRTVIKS
Sequence of human recombinant CA VB (Q9Y2D0 34-317): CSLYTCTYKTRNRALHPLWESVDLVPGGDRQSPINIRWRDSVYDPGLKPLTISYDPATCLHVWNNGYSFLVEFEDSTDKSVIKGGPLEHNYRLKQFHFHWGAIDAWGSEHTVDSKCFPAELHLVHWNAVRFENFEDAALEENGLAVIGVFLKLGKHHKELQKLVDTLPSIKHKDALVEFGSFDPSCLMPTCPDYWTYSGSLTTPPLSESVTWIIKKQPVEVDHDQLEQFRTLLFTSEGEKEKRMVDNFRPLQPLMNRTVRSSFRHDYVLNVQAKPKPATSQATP

`Cc1cc2ncn(CC(=O)c3cc(S(N)(=O)=O)c(Cl)cc3Cl)c2cc1C` [Compound 30, 2,4-dichloro-5-[2-(5,6-dimethylbenzimidazol-1-yl)acetyl]benzenesulfonamide] showed a Kd (human recombinant CA II; [2]) of 500 nM, a Kd (human recombinant CA VA) of 5 nM and a Kd (human recombinant CA VII) of 700 nM. The Kd (human recombinant CA XIV; [2]) was 300 nM.
For `NS(=O)(=O)c1cc(C(=O)Cn2cnc3ccccc32)ccc1Cl` [Compound 19, 5-[2-(benzimidazol-1-yl)acetyl]-2-chloro-benzenesulfonamide], the Kd (human recombinant CA VI) was 700 nM, the Kd (human recombinant CA IV) was 600 nM and the Kd (human recombinant CA III) was greater than 200000 nM. The Kd (human recombinant CA VA) was 0.3 nM, the Kd [1] was 800 nM and the Kd (human recombinant CA XIV; [2]) was 50 nM.
`COC(=O)c1cc(S(N)(=O)=O)c(Cl)cc1SCCc1ccccc1` [Compound 14d, methyl 4-chloro-2-phenethylsulfanyl-5-sulfamoyl-benzoate] gave a Kd (human recombinant CA I) of 13000 nM, a Kd (human recombinant CA II; [3]) of 170 nM and a Kd (human recombinant CA IX; [3]) of 13 nM. It also gave a Kd (human recombinant CA XII; [3]) of 53 nM.
For `COC(=O)c1cc(S(N)(=O)=O)c(Cl)cc1S(=O)(=O)c1ccccc1` [Compound 42a, methyl 2-(benzenesulfonyl)-4-chloro-5-sulfamoyl-benzoate], the Kd (human recombinant CA XIV; Table 2, FTSA at 37° C., pH 7.0) was 0.03 nM.
Work on “2,4-dichloro-5-[2-(5-methoxybenzimidazol-1-yl)acetyl]benzenesulfonamide and 2,4-dichloro-5-[2-(6-methoxybenzimidazol-1-yl)acetyl]benzenesulfonamide [Compound 31]” yielded a Kd (human recombinant CA VI) of 1800 nM, a Kd (human recombinant CA VB) of 700 nM and a Kd (human recombinant CA IV) of 1400 nM. For the same molecule, the Kd (human recombinant CA III) was 40000 nM, the Kd (human recombinant CA IX; [2]) was 400 nM and the Kd (human recombinant CA XII; [2]) was 2800 nM. The Kd (human recombinant CA VA) was 6 nM, the Kd [1] was 600 nM and the Kd (human recombinant CA VII) was 300 nM. It also gave a Kd (human recombinant CA XIV; [2]) of 40 nM.
In the case of `COC(=O)c1cc(S(N)(=O)=O)c(Cl)cc1SCc1ccccc1` [Compound 14c, methyl 2-benzylsulfanyl-4-chloro-5-sulfamoyl-benzoate], the Kd (human recombinant CA I) is reported as 6900 nM, the Kd (human recombinant CA II; [3]) is reported as 110 nM and the Kd (human recombinant CA IX; [3]) is reported as 2.9 nM. For the same molecule, the Kd (human recombinant CA XII; [3]) was 22 nM.
`COC(=O)c1cc(S(N)(=O)=O)c(Cl)cc1SC1CCCCC1` [Compound 14b, methyl 4-chloro-2-cyclohexylsulfanyl-5-sulfamoyl-benzoate] showed a Kd (human recombinant CA I) of 17000 nM, a Kd (human recombinant CA II; [3]) of 250 nM and a Kd (human recombinant CA IX; [3]) of 0.3 nM. For the same molecule, the Kd (human recombinant CA XII; [3]) was 33 nM.
`NS(=O)(=O)c1cc(C(=O)Cn2cnc3ccccc32)c(Cl)cc1Cl` [Compound 29, 5-[2-(benzimidazol-1-yl)acetyl]-2,4-dichloro-benzenesulfonamide] gave a Kd (human recombinant CA IX; [2]) of 400 nM, a Kd (human recombinant CA VA) of 2 nM and a Kd [1] of 700 nM. The Kd (human recombinant CA VII) was 100 nM and the Kd (human recombinant CA XIV; [2]) was 20 nM.
Work on `COC(=O)c1cc(S(N)(=O)=O)c(Cl)cc1Sc1ccccc1` [Compound 14a, methyl 4-chloro-2-phenylsulfanyl-5-sulfamoyl-benzoate] yielded a Kd (human recombinant CA I) of 10000 nM and a Kd (human recombinant CA XII; [3]) of 6.7 nM.
Molecule `Cc1cc2ncn(CC(=O)c3ccc(Cl)c(S(N)(=O)=O)c3)c2cc1C` [Compound 20, 2-chloro-5-[2-(5,6-dimethylbenzimidazol-1-yl)acetyl]benzenesulfonamide] has a Kd (human recombinant CA II; [2]) of 600 nM, a Kd (human recombinant CA IX; [2]) of 600 nM and a Kd (human recombinant CA XII; [2]) of 3100 nM. The Kd (human recombinant CA VA) was 0.8 nM, the Kd [1] was 800 nM and the Kd (human recombinant CA XIV; [2]) was 50 nM.
